According to a melting point compilation (Tetko et al.; mined from patent text by program, amines drawn as free bases though some values may be those of a salt):
Residues, ends and D or L forms follow the SMILES beside them. *: point of attachment. Boc = CC(C)(C)OC(=O)*

| melting point [°C] | SMILES |
| --- | --- |
| 154 to 155 | CC(C)(C)OC(=O)N(CCCCC(=O)c1cc2c3c(c1)CCN3C(=O)CC2)CCc1ccccc1O |
| 121 to 122 | Brc1ccc(SC23CC4CC(CC(C4)C2)C3)cc1 |
| 203 to 204 | C=CCc1cc2c(c(CC=C)c1O)CCC(=O)N2CCCNC(N)=O |
| 191 to 193 | COC(=O)COc1ccc(Nc2cc(Nc3ccc(F)c(Cl)c3)ncn2)cc1 |
| > 270 | COCC1OC(=Nc2nccs2)c2c1nc1cc(Cl)ccc1c2O (stereo unspecified) |
| 119 to 120 | Cc1c(-c2ccccc2)oc2c(OCCN=[N+]=[N-])cccc2c1=O |
| 59 to 60 | CCc1c(Sc2cc(C)cc(C)c2)n(CC2=CCCC2CO)c(=O)[nH]c1=O (stereo unspecified) |
| 252 to 254 | NNC(=O)c1ncnc2[nH]ccc12 |
| 221 to 224 | O=C1Nc2cccc(Br)c2C(=O)N2CCC[C@@H]12 |
| 216 to 218 | CC1(C)C(=O)Nc2cc(C(=O)Nc3ccc(N)cc3)ccc21 |
| 89 to 91 | CC(Oc1ccc(F)cc1Cl)c1ccnc2ncnn12 (stereo unspecified) |
| 177 to 179 | CCN(CC)C(=O)c1cnn(C)c1C(=O)Nc1ccn2nc(-c3ccccc3)nc2c1 |
| 122 to 124 | COc1cc(NC(=O)CCCCCN2CCNCC2)c2nccc(C)c2c1 |
| 125 to 126 | Cn1cc(C#N)cc1C=O |
| 121 | CC1CC(C)C(C)(C)c2ccc(-c3cccc(-c4ccc(C(=O)O)cc4)c3O)cc21 (stereo unspecified) |
| 90 to 93 | OC1(c2cccc(C(F)(F)F)c2)CCN(CCCC2(c3ccc(F)cc3F)OCCO2)CC1 |
| 93 to 96 | CC(C)(C)OC(=O)Nc1ccc(-c2cccc(F)c2)cc1[N+](=O)[O-] |
| 202 | N#Cc1ncn2c(C(F)(F)F)cc(-c3cccc(C(F)(F)F)c3)nc12 |
| 121 to 123 | O=C(OCCc1noc(-c2ccc(CN3CCCCCC3)s2)n1)c1ccccc1 |
| 228 to 230 | Cc1ccc(-c2ccccc2C(=O)Nc2ccc(C(=O)N3C[C@H]4CCCN4c4ccccc43)cc2)cc1 |
| 107 to 108 | O=C(O)Cc1ccc2c(c1)CCC(C(F)(F)F)N2 (stereo unspecified) |
| 250 | CC1(C)Oc2ccc(Cl)cc2[C@@H](n2ccccc2=O)[C@@H]1O (relative stereo) |
| 163 | COC(C)(CC(=O)Nc1cccc(OC(=O)NC2CCCCC2)c1)OC |

| melting point [°C] | SMILES |
| --- | --- |
| 150 to 151 | OC1(c2ccc(F)cc2)Cc2ccccc2C2=NCCN21 (stereo unspecified) |
| 226 to 227 | CC(C)CCOc1ccc(-c2c(Cl)c(CN3C(=O)CCC3=O)nc3sc4c(c23)CCNC4)cc1 |
| 186 | CC(C)(C)OC(=O)N[C@@H](Cc1ccc(O)cc1)C(=O)NCC(=O)NCC(=O)Oc1c(Cl)c(Cl)c(Cl)c(Cl)c1Cl |
| 53 to 56 | CC(C)c1cc(Cl)nc(C(C)C)c1N |
| 132 to 134 | Nc1ncn(C2OC(CO)C(O)C2O)c2nc(=O)sc1-2 (stereo unspecified) |
| 120 to 121 | O=C(Nc1ccccc1)N(Cc1ccc(F)cc1)C1CCCC1 |
| 167 to 168 | CC(=O)Oc1ccc(S(=O)(=O)ON=C2c3ccccc3-c3ccccc32)cc1 |
| 266 to 283 | CS(=O)(=O)Nn1c(=O)[nH]c2cc(C(F)(F)F)c(N3CCC3)cc2c1=O |
| 251 to 255 | O=C(CCCCC(=O)Oc1cc(O)cc(O)c1)Oc1cc(O)cc(O)c1 |
| 136 | Nc1ccc(N=Nc2ccc(N)c(C(F)(F)F)c2)c(C(F)(F)F)c1 |
| 93 to 95 | Cc1oc2c(C(O)CO)cccc2c1C (stereo unspecified) |
| 124 to 126 | CN(C(=S)Nc1ccc(Cl)cc1Cl)c1cccc(C(=CCCCC(=O)O)c2cccnc2)c1 |
| 83 to 85 | CC(C)Oc1ccc(N)c(CC#N)n1 |
| 199 to 201 | Nc1cc(Cl)c([N+](=O)[O-])cc1OC(=O)c1ccccc1 |
| 84 to 85 | COC(=O)c1ccsc1 |
| 213 to 215 | O=C(O)c1cc(N=Cc2ccccc2)ccc1O |
| 127 | CCCn1c(=O)c2c(nc(/C=C/c3ccc(OC)c(OC)c3)n2C)n(CCC)c1=O |
| 183 to 185 | CCOC(=O)c1cnc2c(c1NCCN(C)C)NC(=O)CN2 |
| 218 to 219 | COc1ccc2cc(C(N)=O)c(N)nc2c1OC |
| 214 to 216 | CNc1cc(F)ccc1C(=O)Cc1nnn[nH]1 |
| > 330 | CC1(C)CCC(C)(C)c2cc(OCc3ccc(C(=O)O)cc3)ccc21 |
| 154 | O=C(Nc1cccc2[nH]ccc12)c1ccccc1OCCN1CCCCC1 |
| 152 to 155 | CCc1ccc(N2CCN(c3c(C)c(C)c4c(c3C)CC(C)(C)O4)CC2)cc1 |

| melting point [°C] | SMILES |
| --- | --- |
| 74 to 75 | CCOC(=O)c1ccc(Sc2cc3c(cc2C)C(C)(C)CCC3(C)C)cc1O |
| 98 to 100 | O=S(=O)(CCl)N(Cc1cccnc1)c1ccc(Cl)cc1 |
| 119 to 121 | CC(=O)c1cccc(NC(=O)c2ccc3c(c2)CC(CSCc2ccccc2)O3)c1O (stereo unspecified) |
| 130 to 131 | O=C(Nc1ccc(-n2nc(C(F)(F)F)cc2OC(F)F)cc1)c1ccccc1F |
| 206 to 207 | CNC(=O)c1cccc(C2=NC(C)(C)Cc3cc(OC)c4c(c32)CC(C)(C)O4)c1 |
| 73 to 75 | CCCCCNc1ncnc2c(C(C)C)n[nH]c12 |
| 89 to 90 | COc1ccc(C(=O)c2coc3ccccc23)cc1 |
| 89 to 91 | COc1ccc(C(=O)c2cnn(C)c2O)c(Cl)c1N=C1CCCCS1=O (stereo unspecified) |
| 110 to 112 | Cc1[nH]c2ccccc2c1CCCN1CCC(c2noc3ccccc23)CC1 |
| 175 to 176 | COc1ccc(S(=O)(=O)Nc2ccc(Cl)cc2/C=C/c2ccncc2)cc1 |
| 185 to 187 | CCc1nc2c(N)nc(C)c(C)c2n1CCOCCNC(=O)NC(=O)c1ccccc1 |
| 129 to 133 | CS(=O)(=O)c1ccc(-c2cc(C(F)(F)F)nn2-c2ccc(CO)cc2)cc1 |
| 67 to 68 | O=[N+]([O-])c1ccc(-c2ccc(I)cc2C(F)(F)F)c(C(F)(F)F)c1 |
| > 300 | Nc1nc(=O)[nH]c2cccnc12 |
| 157 | CCN(CCOc1ccc(NC(=O)c2cccc3c(=O)c4ccccc4[nH]c23)cc1)Cc1ccccc1 |
| 98 | Cc1cc(-n2ccnc2)c2cccc(OCc3c(Cl)ccc(S(=O)(=O)N4CCC[C@H]4C(=O)N(C)CCN(C)C)c3Cl)c2n1 |
| 108 to 111 | CCCCCCCCCCCCn1nnnc1Nc1ccccc1 |
| 143 to 145 | Cc1nn(-c2ccc(Cl)nn2)c(C)c1Br |
| 140 to 141 | COc1cc(OC)cc(N2CCN(C(=O)Nc3nc4ccccc4nc3OC)CC2)c1 |
| 127 to 129 | NC(=NCC(F)(F)F)Nc1ccnc(SCCCNC(=O)c2ccco2)n1 |
| 181 to 182 | Cc1nn(-c2ccc(F)cc2)cc1C(=O)Nc1ccc(OCC(C)(C)C)c(C#N)c1 |
| > 260 | CCOC(=O)c1cnc2ccc(Cl)cc2c1O |
| 200 to 203 | CC(C)(C)OC(=O)Nc1ccc2c(c1)OCC(=O)N2 |

| melting point [°C] | SMILES |
| --- | --- |
| 246 to 247 | O=C(O)c1cc(-n2c3c(c(-c4ccccc4)c2-c2ccccc2)CCCC3)ccc1O |
| 188 to 190 | O=C1CCCN(C(=O)c2ccc([N+](=O)[O-])cc2)c2cccnc21 |
| 211 to 214 | COC(=O)C(Cc1ccccc1)NC(=O)C(Cc1ccccc1)NC(=O)C(CC(N)=O)NC(=O)CNC(=O)OC(C)(C)C (stereo unspecified) (Boc-GNFF-OMe; configuration not given here) |
| 68.5 to 71.5 | CCCCCCc1ccc(C(=O)N2CCOCC2)cc1[N+](=O)[O-] |
| 215 to 217 | CSc1nn2c(O)cc(CCl)nc2c1S(=O)(=O)c1ccccc1 |
| 138 to 140 | CCCS(=O)c1cccnc1S(=O)(=O)NC(C)(C)C (stereo unspecified) |
| 114 | Nc1ncccc1CNC1CCN(Cc2ccccc2)CC1 |
| 215 to 221 | COc1cc2c(Nc3ccc(Sc4nccn4C)c(Cl)c3)c(C#N)cnc2cc1/C=C/CCCN1CCN(C)CC1 |
| 98 | C=CCC(F)(F)C(=O)C(Cc1ccccc1)NC(=O)c1ccccc1 (stereo unspecified) |
| 154 to 157 | COC(=O)C1=C(C)NC(C)=C(C(=O)CS(=O)(=O)N(C)C)C1c1cccc([N+](=O)[O-])c1 (stereo unspecified) |
| 134 | NC(=O)N(O)[C@H]1CC[C@H](Oc2ccccc2)C1 |
| 138 to 140 | CCN(CC)CCOc1ccc2cc3ccc(OCCN(CC)CC)c([N+](=O)[O-])c3nc2c1[N+](=O)[O-] |
| 215 to 216 | O=C1Nc2ccccc2Sc2cscc21 |
| 133 | N#Cc1ccc(NC(=NS(=O)(=O)c2ccccc2)NCC(=O)O)cc1 |
| 54 to 56 | COc1cccc(CCOc2ccc(C(=O)N/C(=C\c3ccc(Cl)cc3)C(=O)NCCO)cc2)c1 |
| 219 to 220 | CN1CCN(C(=O)c2cc3c4ccccc4n(C)c3s2)CC1 |
| 137 to 140 | CC12CCC(=O)C=C1CCC1C2CCC2(C)C(C(F)F)CCC12 (stereo unspecified) |
| 186 to 188 | O=C(NC1CCNC1)C12CC3CC(CC(C3)C1)C2 (stereo unspecified) |
| 76.2 | C#CCOc1cc(Oc2ccccc2Cl)ncn1 |
| 73 to 75 | CC(=O)c1ccc(CNC(=O)OC(C)(C)C)cc1 |
| 76 to 77 | Cc1c(C)n2c3c(cccc13)CCc1ccccc1-2 |
| 158 to 159 | Cc1ccccc1CNc1cc(C(=O)N(C)C)cc2c1nc(C)n2C |

| SMILES | melting point [°C] |
| --- | --- |
| CN(C)c1ccc(C(N)P(O)O)cc1 (stereo unspecified) | 223 to 224 |
| CN1C(=O)[C@H](NC(=O)/C=C/c2c(Cl)cccc2Cl)N=C(c2ccccc2)c2ccccc21 | 121 to 124 |
| COCC#Cc1ncn2c1CN(C)C(=O)c1ccccc1-2 | 114 to 115 |
| COCN1C(=O)N(c2ccc(C#N)c(OC)c2)C(=O)C1(C)c1ccc(O)cc1 (stereo unspecified) | 141 |
| C=CCC1(C(C)CC(=O)OCC)C(=O)NC(=O)NC1=O (stereo unspecified) | 114 |
| COc1cc(C(=O)Nc2c(Cl)cc3c(Br)n[nH]c3c2C(=O)NC(C)C)n(-c2ncccc2Cl)n1 | 217 to 218 |
| OC[C@@H]1CC[C@H]2CN(c3ncccn3)CCN2C1 (relative stereo) | 135 to 136 |
| CC(N)Cc1ccc(OCC(=O)NCCc2ccc(O)cc2)cc1 (stereo unspecified) | 160 to 163 |
| Cc1nc(-c2ccc(C#CC3(O)CN4CCC3CC4)cc2)no1 (single isomer, unassigned; (-)) | 211 to 212 |
| NC(=O)c1cn(Cc2ccccc2F)cn1 | 204 to 205 |
